These results are taken from patent US8546395B2, “6-cycloamino-3-(1H-pyrrolo[2,3-b]pyridin-4-yl)imidazo[1,2-b]pyridazine derivatives, preparation thereof and therapeutic use thereof” (Sanofi, priority 2008, dated 2013).

In one test the target is T1, human CK1 delta (Homo sapiens, UniProt P48730).
T1 construct: purchased Invitrogen Corporation PV3665
Nature of the test: FRET fluorescence test (Z'Lyte kinase assay Kit), peptide substrate SER/THR 11. Type of test: biochemical. Particulars: peptide substrate 2 μM, ATP at 4 times the KM. The source says:
The capacity of the compounds of the invention to inhibit the phosphorylation of casein by casein kinase 1 epsilon and delta may be evaluated using a FRET (“Fluorescence Resonance Energy Transfer) fluorescence test with the aid of the “Z'Lyte™ kinase assay Kit” (reference PV3670; Invitrogen Corporation™) according to the manufacturer's instructions.
The casein kinases 1 used are obtained from Invitrogen Corporation (human CK1 epsilon PV3500 and human CK1 delta PV3665).
A peptide substrate, labelled at both ends with a fluorophor donor group (coumarin) and a fluorophor acceptor group (fluorescein) constituting a FRET system is phosphorylated in the presence of ATP by casein kinase 1 epsilon or delta in the presence of increasing concentrations of compounds of the invention.
The mixture is treated with a site-specific protease that specifically cleaves the peptide substrate to form two fluorescent fragments having a large fluorescence emission ratio.
The fluorescence observed is thus related to the capacity of the products of the invention to inhibit the phosphorylation of the peptide substrate by casein kinase 1 epsilon or casein kinase 1 delta.
The compounds of the invention are dissolved at different concentrations starting with a 10 mM stock solution in DMSO diluted in a buffer containing 50 mM HEPS, pH 7.5, 1 m MEGTA, 0.01% Brij-35, 10 mM MgCl2 for casein kinase 1 epsilon and supplemented with Trizma Base (50 mM), pH 8.0, and NaN3 (0.01% final) for casein kinase 1 delta.
The phosphorylation of the peptide substrate SER/THR 11 obtained from Invitrogen Corporation™ is performed at a final concentration of 2 μM. The ATP concentration is 4 times the KM, this value being 2 μM for casein kinase 1 epsilon and 4 μM for casein kinase 1 delta.
The emitted fluorescence is measured at wavelengths of 445 and 520 nm (excitation at 400 nm).

The subject of test [1] is Mper1-luc Rat-1 (P2C4) fibroblasts. Nature of the test: Circadian cell assay (mPer1-luciferase reporter, period prolongation). Type of test: cell-based. To be noted: effective concentration that induced a 1-hour prolongation of the circadian period, interpolated from hyperbolic curve. On the procedure: Experimental Protocols for Circadian Cell Assay
Mper1-luc Rat-1 (P2C4) fibroblast cultures were prepared by dividing the cultures every 3-4 days (approximately 10-20% of confluence) on 150 cm^2 degassed polystyrene tissue culture flasks (Falcon® #35-5001) and maintained in growth medium [EMEM (Celigro #10-010-CV); 10% foetal bovine serum (FBS; Gibco #16000-044); and 50 I.U./ml of penicillin-streptomycin (Celigro #30-001-CI)] at 37° C. and under 5% CO2.
Cells obtained from Rat-1 fibroblast cultures at 30-50% of confluence as described above were co-transfected with vectors containing the selection marker for resistance to zeocin for a stable transfection and a luciferase reporter gene controlled by the mPer-1 promoter. After 24 to 48 hours, the cultures were divided on 96-well plates and maintained in growth medium supplemented with 50-100 μg/ml of zeocin (Invitrogen® #45-0430) for 10-14 days. The zeocin-resistant stable transfectants were evaluated for the expression of the reporter by adding 100 μM luciferin (Promega® #E1603®) to the growth medium and by assaying the luciferase activity on a TopCount scintillation counter (Packard Model #C384V00). The Rat-1 cell clones expressing both zeocin resistance and lucerifase activity controlled by mPer1 were serum-shock synchronized with 50% horse serum [HS (Gibco® #16050-122)] and the activity of the circadian reporter was evaluated. The P2C4 clone of Mper1-luc Rat-1 fibroblasts was selected to test the compound. Mper1-luc Rat-1 ([…]) fibroblasts at 40-50% of confluence, obtained according to the protocol described above, were plated out onto 96-well opaque tissue culture plates (Perkin Elmer® #6005680). […]
The period analysis was performed either by determining the interval between the relative light emission minima over several days or by Fourier transform. […] The data were analysed by adjusting a hyperbolic curve to the data expressed as change of period (y-axis) as a function of the concentration of the test compound (x-axis) in the XLfit™ software and the CE Delta (t+1 h) was interpolated from this curve.
Background: Reporter assays use an easily measured gene product as a stand-in for the process of interest.

T1 sequence (P48730 whole entry): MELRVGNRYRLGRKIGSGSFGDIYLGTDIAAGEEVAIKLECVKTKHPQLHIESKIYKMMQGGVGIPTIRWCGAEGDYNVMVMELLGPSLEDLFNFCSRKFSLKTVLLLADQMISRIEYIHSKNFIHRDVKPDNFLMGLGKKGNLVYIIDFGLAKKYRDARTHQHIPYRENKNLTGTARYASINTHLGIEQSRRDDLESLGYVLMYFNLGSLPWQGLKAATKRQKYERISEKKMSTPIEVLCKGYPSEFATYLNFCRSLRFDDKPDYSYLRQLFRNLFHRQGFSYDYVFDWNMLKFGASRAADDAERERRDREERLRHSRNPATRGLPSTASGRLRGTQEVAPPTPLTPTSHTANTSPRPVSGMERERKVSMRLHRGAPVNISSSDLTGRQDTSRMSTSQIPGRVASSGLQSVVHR

The IC50 is the concentration needed to halve the response being measured. A lower IC50 goes with greater potency. `Fc1ccc(-c2nc3ccc(N4CCC(N5CCCC5)CC4)nn3c2-c2ccnc3[nH]ccc23)cc1` [Compound 36, 2-(4-Fluorophenyl)-6-(4-pyrrolidin-1-ylpiperidin-1-yl)-3-(1H-pyrrolo[2,3-b]pyridin-4-yl)imidazo[1,2-b]pyridazine] registered an IC50 at human CK1 delta of 19 nM. The “CE Delta (t + 1 h)” value in test [1] was in the range of 1 to 7 nM.
